From patent US4061777A, “Vasodilatory terpeno-phenoxyalkylamines” (Mar-Pha, Societe d'Etudeet d'Exploitation de Marques Mar-Pha, priority 1974, dated 1977) come the findings set out here.

In brackets after ≈: the same amount, converted by molar mass.

Assay [1] concerns heart taken from a rabbit. The assay can be described thus: Coronaro-dilatory effects in vitro on isolated rabbit heart (Langendorff's technique). The settings on record: for Coronary output, Duration in mins.: duration of the variation in coronary output. The protocol: They were measured in vitro on a heart taken from a rabbit, according to Langendorff's technique. The terpenophenoxy alkylamines according to the invention are administered to the aortic canal at a constant volume of 1 cm^3 for 1 minute.
The following table indicates the increase in the coronary output and the duration of this variation, depending on the doses.

A further assay relates to Escherichia coli. The assay can be described thus: Bacteriostatic activity by the method of streaks in gelose media (minimum inhibitory concentration), Escherichia coli. In kind it is cell-based. The settings on record: Escherichia coli (gram -ve). The protocol:
(§1) The bacteriostatic activity of the products according to the invention have been evaluated by the method of streaks in gelose media. This method comprises making increasing dilutions of the product to be tested, in nutritive gels poured in a Petri dish. The bacteria to be studied are introduced onto the geloses in parallel streaks by means of a platinum loop which has been immersed in a 24 hour old culture of the bacteria. […] The activity of the compounds has been studied vis a vis gram + ve (Staphylococcus aureus) and gram - ve (Escherichia coli) bacteria.

A further assay deals with Staphylococcus aureus. The assay can be described thus: Bacteriostatic activity by the method of streaks in gelose media (minimum inhibitory concentration), Staphylococcus aureus. It counts as cell-based. The settings on record: Staphylococcus aureus (gram +ve). The protocol: as §1
Setting [2] is: Oryctolagus cuniculus, 1 min, dose 3 μg/cm^3, aortic canal, 1 cm^3 for 1 minute, increase (+), read-out: Coronary output, Variations in %.
[3] abbreviates: Oryctolagus cuniculus, 1 min, dose 10 μg/cm^3, aortic canal, 1 cm^3 for 1 minute, increase (+), read-out: Coronary output, Variations in %.
Setting [4] is: Oryctolagus cuniculus, 1 min, dose 1 μg/cm^3, aortic canal, 1 cm^3 for 1 minute, increase (+), read-out: Coronary output, Variations in %.

On to `Cc1cc(OCCN)c(C2CC3CCC2(C)C3(C)C)cc1C` (centres unmarked) [Example 1, 2-(2'-isobornyl-4',5'-dimethylphenoxy) ethylamine], for which the activation at 3 µg/mL in assay [1] (setting [2]) was determined as 37%. Further, the activation at 10 µg/mL in assay [1] (setting [3]) stood at 55%. The “Coronary output, Duration in mins.” value in assay [1] (dose 3 μg/cm^3) and in assay [1] (dose 10 μg/cm^3) was 5 min throughout. The minimal inhibitory concentration (MIC) (usually the smallest concentration in the dilution series that meets the test's criterion for growth inhibition) in the assay with Escherichia coli worked out at 7.5 µg/mL (≈ 24.9 µM); against Staphylococcus aureus it was 5 µg/mL (≈ 16.6 µM).

In the case of `Cc1cc(OCCN)c(C2CC3CCC2(C)C3(C)C)cc1Br` (centres unmarked) [Example 2, 2-(2'-isobornyl-4'-bromo-5'-methylphenoxy) ethylamine], the activation at 1 µg/mL in assay [1] (setting [4]) was determined as 23%. The activation at 3 µg/mL in assay [1] (setting [2]) came to 39%. Further, the “Coronary output, Duration in mins.” value in assay [1] (dose 1 μg/cm^3) and in assay [1] (dose 3 μg/cm^3) was > 15 min throughout. The figures for the MIC in the assay with Escherichia coli and against Staphylococcus aureus were 10 µg/mL (≈ 27.3 µM) and 5 µg/mL (≈ 13.6 µM), respectively.

As for `CC1(C)C2CCC1(C)C(c1cc(Br)ccc1OCCN)C2` (centres unmarked) [Example 3, 2-(2'-isobornyl-4'-bromophenoxy) ethylamine], the activation at 1 µg/mL in assay [1] (setting [4]) was 4%. Besides, in assay [1] (setting [2]), the activation at 3 µg/mL is 36%. Further, the entries for the “Coronary output, Duration in mins.” value in assay [1] (dose 1 μg/cm^3) and in assay [1] (dose 3 μg/cm^3) were 3 min and > 15 min, respectively. In addition, the MIC amounted to 5 µg/mL (≈ 14.2 µM) against Escherichia coli and 7.5 µg/mL (≈ 21.3 µM) with Staphylococcus aureus.

For the molecule `Cc1cc(OCC(O)CN)c(C2CC3CCC2(C)C3(C)C)cc1C` (centres unmarked) [Example 4, 3-(2'-isobornyl-4,5'-dimethylphenoxy)-1-amino propan-2-ol], in assay [1] (setting [2]), the activation at 3 µg/mL turned out to be 127%. Besides, the activation at 10 µg/mL in assay [1] (setting [3]) worked out at 140%. The “Coronary output, Duration in mins.” value in assay [1] (dose 3 μg/cm^3) was determined as 15 min; in assay [1] (dose 10 μg/cm^3), 12 min. Also, the MIC against Escherichia coli and against Staphylococcus aureus was 5 µg/mL (≈ 15.1 µM) in each case.

`Cc1cc(OCC(O)CN)c(C2CC3CC2C(C)C3(C)C)cc1C` (centres unmarked) [Example 5, 3-(2'-isocamphyl-4',5'-dimethylphenoxy)-1-amino propan-2-ol]: in assay [1] (setting [4]), the activation at 1 µg/mL came to 13%. Moreover, the activation at 3 µg/mL in assay [1] (setting [2]) was 70%. The figures for the “Coronary output, Duration in mins.” value in assay [1] (dose 1 μg/cm^3) and in assay [1] (dose 3 μg/cm^3) were 2 min and > 15 min, respectively. Also, the minimum inhibitory concentration (MIC) in the assay on Escherichia coli and against Staphylococcus aureus was 5 µg/mL (≈ 15.1 µM) in each case.

For `Cc1cc(OCC(O)CNC(C)C)c(C2CC3CC2C(C)C3(C)C)cc1C` (centres unmarked) [Example 6, 3-(2'-isocamphyl-4',5'-dimethylphenoxy)-1-isopropylamino propan-2-ol], the activation at 3 µg/mL in assay [1] (setting [2]) is 36%. Also, in assay [1] (setting [3]), the activation at 10 µg/mL amounted to 66%. For the same molecule, the figures for the “Coronary output, Duration in mins.” value in assay [1] (dose 3 μg/cm^3) and in assay [1] (dose 10 μg/cm^3) were 15 min and 9 min, respectively. The molecule further had an MIC in the assay with Staphylococcus aureus of 5 µg/mL (≈ 13.4 µM).

On to `Cc1cc(OCCNCCO)c(C2CC3CCC2(C)C3(C)C)cc1C` (centres unmarked) [Example 7, N-hydroxyethyl-2-(2'-isobornyl-4',5'-dimethylphenoxy) ethylamine], for which, in assay [1] (setting [2]), the activation at 3 µg/mL came out at 51%. For the same molecule, the activation at 10 µg/mL in assay [1] (setting [3]) amounted to 109%. Also, the “Coronary output, Duration in mins.” value in assay [1] (dose 3 μg/cm^3) and in assay [1] (dose 10 μg/cm^3) was > 15 min each time. For the same molecule, the figures for the MIC in the assay on Escherichia coli and against Staphylococcus aureus were 30 µg/mL (≈ 86.8 µM) and 10 µg/mL (≈ 28.9 µM), respectively.

For `CC1(C)C2CCC1(C)C(c1ccccc1OCC(O)CN)C2` (centres unmarked) [Example 8, 1-Amino 3-(2'-isobornylphenoxy) propan-2-ol], the activation at 3 µg/mL in assay [1] (setting [2]) is 24%. In assay [1] (setting [3]), the activation at 10 µg/mL turned out to be 63%. The figures for the “Coronary output, Duration in mins.” value in assay [1] (dose 3 μg/cm^3) and in assay [1] (dose 10 μg/cm^3) were 6 min and 12 min, respectively. The MIC against Escherichia coli is 7.5 µg/mL (≈ 24.7 µM); in the assay on Staphylococcus aureus, 20 µg/mL (≈ 65.9 µM).

Regarding `CC(C)NCC(O)COc1ccccc1C1CC2CCC1(C)C2(C)C` (centres unmarked) [Example 9, 1-Isopropylamino 3-(2'-isobornylphenoxy) propan-2-ol], the activation at 3 µg/mL in assay [1] (setting [2]) is 95%. Further, the activation at 10 µg/mL in assay [1] (setting [3]) stood at 102%. In addition, the “Coronary output, Duration in mins.” value in assay [1] (dose 3 μg/cm^3) and in assay [1] (dose 10 μg/cm^3) was 4 min each time.

On to `Cc1cc(OCCN)c(C2CC3CCC2(C)C3(C)C)cc1Cl` (centres unmarked) [Example 10, 2-(2-isobornyl-4-chloro-5-methylphenoxy) ethylamine], for which the activation at 1 µg/mL in assay [1] (setting [4]) is 34%. For the same molecule, in assay [1] (setting [2]), the activation at 3 µg/mL stood at 60%. Also, the “Coronary output, Duration in mins.” value in assay [1] (dose 1 μg/cm^3) and in assay [1] (dose 3 μg/cm^3) was > 15 min in each case. Also, the minimal inhibitory concentration (MIC) in the assay with Escherichia coli and against Staphylococcus aureus was 7.5 µg/mL (≈ 23.3 µM) throughout.

Regarding `Cc1cc(OCC(O)CNC(C)C)c(C2CC3CCC2(C)C3(C)C)cc1C` (centres unmarked) [Example 11, 1-isopropylamino 3-(2'-isobornyl-4',5'-dimethylphenoxy) propan-2-ol], the activation at 3 µg/mL in assay [1] (setting [2]) came out at 72%. In addition, in assay [1] (setting [3]), the activation at 10 µg/mL turned out to be 210%. Further, the “Coronary output, Duration in mins.” value in assay [1] (dose 3 μg/cm^3) amounted to 5 min; in assay [1] (dose 10 μg/cm^3), 12 min.

As to `Cc1ccc(OCC(O)CN)c(C2CC3CC2C(C)C3(C)C)c1` (centres unmarked) [Example 12, 1-amino 3-(2'-isocamphyl-4'-methylphenoxy) propan-2-ol], in assay [1] (Oryctolagus cuniculus, 1 min, dose 100 μg/cm^3, aortic canal, 1 cm^3 for 1 minute, increase (+), read-out: Coronary output, Variations in %), the activation at 100 µg/mL came out at 31%. Moreover, the “Coronary output, Duration in mins.” value in assay [1] (dose 100 μg/cm^3) was 4 min. The MIC turned out to be 5 µg/mL (≈ 15.7 µM) against Escherichia coli and 7.5 µg/mL (≈ 23.6 µM) with Staphylococcus aureus.
